Test results reported in publication PMC9858427, “Design, synthesis and biological evaluation of 2-((4-sulfamoylphenyl)amino)-pyrrolo[2,3-d]pyrimidine derivatives as CDK inhibitors” (Journal of Enzyme Inhibition and Medicinal Chemistry, 2023).
“Also recorded” adds a separate entry of the source. Read-outs that look alike come from different tables or passages of the source.

Tests used:
CDK9/cyclinT1 = CDK9/cyclinT1 (Homo sapiens, UniProt P50750); test: CDK9/cyclinT1 Lance Ultra Assay, single concentration screen; type: biochemical; conditions: 50 nM, ATP concentration at Km, read-out: CDK9 inhibitory rate (%) @ 50nM
CDK9/cyclinT1, sequence (P50750 whole entry): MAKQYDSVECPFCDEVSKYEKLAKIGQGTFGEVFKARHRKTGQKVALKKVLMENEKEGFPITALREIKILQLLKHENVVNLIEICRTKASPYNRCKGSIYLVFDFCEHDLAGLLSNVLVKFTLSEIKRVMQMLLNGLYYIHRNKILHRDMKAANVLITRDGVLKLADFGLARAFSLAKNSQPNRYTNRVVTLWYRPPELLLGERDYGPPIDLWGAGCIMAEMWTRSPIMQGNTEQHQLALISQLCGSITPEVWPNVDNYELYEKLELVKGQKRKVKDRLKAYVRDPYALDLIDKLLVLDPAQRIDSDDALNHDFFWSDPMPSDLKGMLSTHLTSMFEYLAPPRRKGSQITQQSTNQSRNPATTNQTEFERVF
CDK9/cyclinT1, sequence (O60563 whole entry partner): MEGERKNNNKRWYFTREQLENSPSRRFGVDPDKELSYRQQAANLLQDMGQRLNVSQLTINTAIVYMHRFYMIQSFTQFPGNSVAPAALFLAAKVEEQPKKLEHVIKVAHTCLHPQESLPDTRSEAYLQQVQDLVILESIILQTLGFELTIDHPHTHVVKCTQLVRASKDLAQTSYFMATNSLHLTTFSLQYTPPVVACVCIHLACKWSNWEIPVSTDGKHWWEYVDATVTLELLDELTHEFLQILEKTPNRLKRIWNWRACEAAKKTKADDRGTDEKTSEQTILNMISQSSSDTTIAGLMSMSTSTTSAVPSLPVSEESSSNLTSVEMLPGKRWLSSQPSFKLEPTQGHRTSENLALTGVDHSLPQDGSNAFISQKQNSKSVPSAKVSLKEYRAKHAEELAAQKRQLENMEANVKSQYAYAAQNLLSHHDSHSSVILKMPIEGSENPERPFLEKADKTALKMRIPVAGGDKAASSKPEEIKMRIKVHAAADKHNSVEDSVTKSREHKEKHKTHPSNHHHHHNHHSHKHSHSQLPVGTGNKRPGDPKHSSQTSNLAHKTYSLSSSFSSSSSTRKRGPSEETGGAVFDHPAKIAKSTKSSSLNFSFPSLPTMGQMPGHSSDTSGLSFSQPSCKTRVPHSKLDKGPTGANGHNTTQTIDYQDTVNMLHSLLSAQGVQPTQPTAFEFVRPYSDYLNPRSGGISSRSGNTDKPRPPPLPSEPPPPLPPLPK
Method: CDK kinase activity (IC50 values and inhibitory rate at single concentration) was measured using the kinase profiling services (Shanghai ChemPartner Co., Ltd). Compounds were sent to ChemPartner as a solution in DMSO at concentration of 10 mM.

[1] = system: phosphorylation of Rb and RNA polymerase II, Mcl-1 and c-Myc protein; test: Immunoblots of CDK downstream proteins in MIA PaCa-2 cells; type: cell-based, human; conditions: 6 h exposure
Method: Harvested cells were lysed in 20 mmol/L Tris pH 7.7, 100 mmol/L NaCl, 20 mmol/L β-glycerophosphate, 5 mmol/L MgCl2, 1 mmol/L NaF, 0.1% Triton X-100, 5% glycerol plus freshly added 1 mmol/L DTT, 0.1 µmol/L okadaic acid, 1 mmol/L sodium vanadate, and cOmplete Mini Protease Inhibitor Tablets (Roche, #11836170001). For SDS-PAGE, equal amounts of protein/lane were loaded. After gel transfer onto PDV membrane, immunoblots were performed using the following antibodies: CDK9 (Cell Signalling Technology #C12FT; 1:1,000), RNA polymerase II (Abcam #ab5131; 1:1000), MCL-1 (Abcam #Y37; […] (Cell Signalling Technology #d2b12; 1:1,000), c-Myc (Abcam #YB69; 1:1000). Secondary antibodies were from Cell Signalling Technology (#7076 or #7074). ECL detection was performed.

MIA PaCa-2 cells = test: Cell viability after CDK9 knockdown by siRNA; type: cell-based, human; conditions: siCDK9 50 nM; compound 0.2 µM, 72 h
Method: Cells were planted in 96-well plates at a density of 3000–4000 cells per well and incubated at 37 °C in a humidified CO2 incubator for 24 h. Then 3-fold diluted concentrations of tested compound were added respectively which was dissolved by DMSO in the ratio of 1:1000. After indicated incubation period, MTT was added to each well and incubated for 4 h at 37 °C. Then, the supernatant was discarded gently, and the precipitate was dissolved in 100 µL of DMSO in each well. The absorbance (A) at 570 nm was detected with a microplate reader (Multiskan MK3; Thermo Fisher Scientific, MA, USA). Vehicle-treated cells were served as the control for the calculation of relative cell viability (%) of treated group at single concentration. IC50 value was calculated directly from the inhibition curve of serial dilution of test compound and was expressed as mean ± SD using the SPSS statistical software (SPSS17.0 Inc., Chicago, IL, USA).
Specific siRNAs against CDK9 (Catelog ID: SIGS0004694-1) were purchased from RiboBio (Guangdong, China) together with a scrambled siRNA. […] Approximately 48 h after transfection, the cells were analysed for protein expression by Western blot. […]

Oral PK study in rats = type: in vivo; conditions: male, SD, rat, plasma, 30 mg/kg
Method: (§1) Synthetic compound was administered as a suspension or solution in the saline with 5% DMSO and 5% Solutol. GCTB was dissolved in saline. All of the experiments were approved by the Institutional Animal Care and Use Committee of Institute of Medicinal Biotechnology. All experiments were carried out under ethics committee–approved protocols and in compliance with the guidelines for the care of laboratory animals of Institute of Medicinal Biotechnology, CAMS.
SD rats were purchased from Beijing Vital River Laboratory Animal Technology Co., Ltd and randomly divided into three groups (n = 3, male). The animals were housed under standard conditions and fastened for 12 h before the treatment. They had free access to water and consumed a standard laboratory diet from 4 h after administration. Blood was taken from the orbital venous plexus at 0, 0.083, 0.25, 0.5, 1, 2, 4, 6, 8, and 24 h after intragastric administration of the test compound (30 mg/kg). The blood samples were collected into heparin anticoagulated EP tubes and centrifuged at 8000 r/min for 5 min at 2−8 °C; the plasma was separated and stored at −70 °C for use. Plasma was centrifuged at 4000 rpm for 10 min at 2−8 °C and stored at −70 °C until analysis. Plasma samples were analysed by LC-MS/MS (AB Sciex API4000 QTRAP) equipped with an ESI ion resource and Analyst 1.5.1 software. The noncompartmental model analysis was used for calculating pharmacokinetic parameters with the WinNolin professional v6.3 program (Pharsight, USA).

[2] = system: AsPC-1 cell-derived xenograft; test: AsPC-1 cell-derived xenograft mice model, in vivo efficacy; set-up: species or system BALB/C nude mice; conditions: five days on two days off per week
Method: as §1
AsPC-1 (5 × 10^7) cells were injected subcutaneously into 5-week-old female BALB/C nude mice (Beijing Huafukang Bioscience CO. Inc, Beijing, China). After two weeks, mice were omogenizamised and treated with vehicle, gemcitabine (GCTB), or test compound. Blank solvent and test compound was administered by oral gavage (10 ml/kg) with once daily of five days and followed by 2 days off in each week, GCTB was given once a week by 50 mg/kg intraperitoneal injection. Mice were inspected daily for clinical signs, both tumour diameters and body weight were determined 3 times weekly. Tumour volumes were calculated according to the formula “tumor volume (V) = length × width^2/2”. Median TGI values were calculated as follows: TGI = 100 × [1-(Vtreated group at day20-Vtreated group at day1)/(Vvehicle group at day20-Vvehicle group at day1)]. Data were plotted as average with SD in the graphical representation of tumour growth. The p values obtained from the two-way ANOVA analysis. Meanwhile, main organs of mice were collected, formalin-fixed and paraffin-embedded for pathological analysis by H&E dyeing. For drug concentration determination, blood and tumour tissues were collected at indicated time after single administration. Standard curve of test compound was established in the acquisition mode of SIM using a SHIMADZU LC-MS instrument. […] After centrifugation at 10 × 10^3 for 5 min, the supernatant was injected directedly into LC-MS instrument for quantification of drug concentration. […] After centrifugation under same condition as plasma samples, supernatant was separated and injected into LC-MS for quantification.

[3] = Solubility / precipitation observations; type: physicochemical

In the case of `CN(C)C(=O)c1cc2cnc(Nc3ccc(S(N)(=O)=O)cc3)nc2n1C1CCCC1` [compound 2g, 7-Cyclopentyl-N,N-dimethyl-2-((4-sulfamoylphenyl)amino)-7H-pyrrolo[2,3-d]pyrimidine-6-carboxamide], the inhibition at 0.05 µM (CDK9/cyclinT1) is reported as 97.8%, the “Mcl-1 and c-Myc protein level” value [1] is reported as “down-regulation of Mcl-1 and c-Myc protein” and the “phosphorylation of Rb and RNA polymerase II” value [1] is reported as “down-regulation of phosphorylated Rb protein; also recorded: inhibited the phosphorylation of Rb and RNA polymerase II”. The “sensitivity of MIA PaCa-2 cells to compound after downregulation of CDK9 by siRNA” value (MIA PaCa-2 cells) was “significantly decreased”, the Cmax (Oral PK study in rats; single oral administration, read-out: maximum plasma drug concentration (Cmax)) was 1160 ng/mL and the AUC (Oral PK study in rats; single oral administration, read-out: systematic exposure (AUC0‑t)) was 4620 ng·h/mL. It also gave an AUC(0-inf) (Oral PK study in rats; oral, n = 3) of 5080 ± 268 ng·h/mL, an AUC(0-t) (Oral PK study in rats; oral, n = 3) of 4620 ± 145 ng·h/mL and an MRT (Oral PK study in rats; oral, n = 3) of 7.72 h. For the same compound, the Tmax (Oral PK study in rats; oral, n = 3) was 0.5 h, the half-life (Oral PK study in rats; oral, n = 3) was 7.54 h and the Cmax (Oral PK study in rats; oral, n = 3, read-out: Cmax) was 2700 nM. The “tumour growth inhibition (TGI)” value ([2]; oral 30 mg/kg, 3-week administration) was 12%, the “reduction of tumour volume compared to vehicle group” value ([2]; oral 60 mg/kg, 3 weeks) was “up to 46%” and the “solubility (in words)” value [3] was “much poorer than 5b”.
